# Assay results: patent publication US8445207B2, “Genes based on thalidomide, valproic acid and methotrexate treatment for screening of drug inducing teratogenicity and screening method using thereof” (priority 2009, dated 2013)
# Legend:
# [1] = tested on: JEG-3 (human placental choriocarcinoma cell line); assay: Real-time RT-PCR quantification of gene expression in drug-treated JEG-3; type: cell-based
# Description: My IQ Real-Time PCR (Bio-Rad, USA) was performed to quantify the expressions of those genes.
# Particularly, cDNA was synthesized using oligo dT primer and Superscript kit (Omniscipt™ kit, Qiagen, Co., USA) by reverse transcription. 0.2 μl of the cDNA, 3.8 μl of water, 0.5 μg of a sense primer, 0.5 μg of an antisense primer, and […] of SYBR Green I supermix (Bio-Rad, USA) were mixed, which was placed in a PCR tube, followed by real-time RT-PCR in My IQ real-time PCR machine as follows: Step 1: 95°, 3 minutes; Step 2 (45 cycles): Step 2-1: 95°, 10 seconds; Step 2-2: 55-65° 45 seconds; Step 3: 95°, 1 minute; Step 4: 55°, 1 minute; Step 5 (80 cycles): 55°, 10 seconds. SYBR green I (Bio-Rad, USA) staining was performed to quantify the PCR product. SYBR I staining is the staining method using double stranded DNA binding. So, the more double stranded DNA is generated during PCR, the stronger the fluorescence intensity becomes. First, target gene and endogenous control (GAPDH) primers were added to SYBR green master mix, followed by PCR. Then, primer optimization was performed to determine a proper concentration. Synthesized cDNA and each primer were mixed (Table 4), to which SYBR master mix was added, followed by PCR.
# [2] = tested on: JEG-3 (human placental choriocarcinoma cell line); assay: Oligo microarray gene expression in drug-treated JEG-3 (Cy5 treated / Cy3 control); type: cell-based
# Description: Thalidomide, valproic acid, and methotrexate were treated to human placental choriocarcinoma cell line at the concentrations determined above (Inhibition concentration: the concentration that can kill approximately 30% of the total cells, that is the concentration of 70% viability, IC30). mRNA was extracted from the drug treated cell line, followed by synthesis of cDNA which was labeled with Cy5. The non-treated control was labeled with Cy3. The fluorescence labeled cDNA was hybridized with 41K (thalidomide), 44K (valproic acid, methotrexate) human whole genome oligomicroarray chips (Agilent, USA), followed by fluorescent image scanning to analyze gene expression patterns (see FIG. 4). Volcano Plot of each substance was also attached. Y axis indicates probability (generally converted by −log 10). X axis indicates differential expression, which is presented by log-ratio.
# Total RNA was separated from the treated cell by using trizol reagent (Invitrogen Life Technologies, USA) according to the manufacture's instructions, followed by purification using RNeasy mini kit (Qiagen, USA). Genomic DNA was eliminated during RNA purification using RNase-free DNase set (Qiagen, USA).
# 30 μg of the total RNA obtained above and 2 μg (1 μg/μl) of oligo (dT) primer were mixed, followed by reaction at 65° C. for 10 minutes. Annealing was performed in ice right after the reaction. Reagents were prepared as shown in Table 1 for reverse transcription of the annealed RNA.
# The total RNA separated from the control group JEG-3 cells was labeled with Cy3-dUTP (green) and the total RNA separated from the experiment group JEG-3 cells treated with thalidomide, valproic acid and methotrexate was labeled with Cy5-dUTP (red). At this time, the two samples were mixed and purified by Microcon YM-30 column (Millipore, USA).
# Hybridization and washing were performed by the manufacturer's (GenoCheck, Korea) instructions. Particularly, hybridization was performed in a 62° C. oven for 12 hours. As a DNA microarray chip, 44 k whole human genome oligo microarray (Agilent, USA) was used. After washing (2 minutes with 2×SSC/0.1% SDS, three minutes with 1×SSC, 2 minutes with 0.2×SSC), the slide was dried by centrifugation at 800 rpm for 3 minutes.
# Hybridization image on the slide was scanned with Genepix 4000B (Axon Instruments, USA). Fluorescence image of the chip on which non-hybridized genes had been washed out was obtained by using laser fluorescence scanner. Green fluorescence image indicates the activity of gene specifically expressed in the control group and red fluorescence image indicates the activity of gene specifically expressed in the experimental group. […] Scanned image was analyzed by using GenePix 4.1 software (Axon Instruments, USA) to calculate gene expression rate.
# [3] = out of 21797 (thalidomide), 21921 (valproic acid), 24006 (methotrexate) genes
# [4] = treated at IC30, up-regulated gene, (k) common gene which has no function
compound,measurement,setting,value
"O=C1CCC(N2C(=O)c3ccccc3C2=O)C(=O)N1 (stereo not shown) [THA, thalidomide]","Real time PCR (Relative ratio), KIAA0310",[1]; GenBank AB002308,4.78
same,"Real time PCR (Relative ratio), ATP10B",[1]; GenBank AB018258,4.7689
same,"Real time PCR (Relative ratio), TTF2",[1]; GenBank AB209845,1.6625
same,"Real time PCR (Relative ratio), TncRNA",[1]; GenBank AF001893,5.9587
same,"Real time PCR (Relative ratio), C4orf19",[1]; GenBank AK001879,1.6143
same,"Real time PCR (Relative ratio), CYP19A1",[1]; GenBank AK023571,2.6408
same,"Real time PCR (Relative ratio), SLC40A1",[1]; GenBank AK023574,2.1558
same,"Real time PCR (Relative ratio), ABTB2",[1]; GenBank AK095632,1.4359
same,"Real time PCR (Relative ratio), TUBB3",[1]; GenBank AK122757,2.8114
same,"Real time PCR (Relative ratio), MGC27016",[1]; GenBank AK125877,2.3438
same,"Real time PCR (Relative ratio), GLCCI1",[1]; GenBank AK126731,1.5509
same,"Real time PCR (Relative ratio), TFCP2L4",[1]; GenBank BC036890,2.5111
same,"Real time PCR (Relative ratio), RGS2",[1]; GenBank BC042755,3.4255
same,"Real time PCR (Relative ratio), SIAT7A",[1]; GenBank BC063830,2.5019
same,"Real time PCR (Relative ratio), B7-H4",[1]; GenBank BX648021,0.5
same,"Real time PCR (Relative ratio), COBLL1",[1]; GenBank BX649112,1.5201
same,"Real time PCR (Relative ratio), CGA",[1]; GenBank NM_000735,2.9963
same,"Real time PCR (Relative ratio), PARP1",[1]; GenBank NM_001618,0.805
same,"Real time PCR (Relative ratio), SERPINB9",[1]; GenBank NM_004155,2.2852
same,"Real time PCR (Relative ratio), ST8SIA4",[1]; GenBank NM_005668,1.8635
same,"Real time PCR (Relative ratio), ABL1",[1]; GenBank NM_007313,0.6781
same,"Real time PCR (Relative ratio), GRLF1",[1]; GenBank NM_024342,0.689
same,"Real time PCR (Relative ratio), LGP1",[1]; GenBank NM_032484,0.4867
same,"Real time PCR (Relative ratio), NCOA3",[1]; GenBank NM_181659,2.9283
same,"Real time PCR (Relative ratio), SR140",[1]; GenBank XM_031553,0.6423
same,"Real time PCR (Relative ratio), SLC7A8",[1]; GenBank Y18483,1.6327
same,"cDNA microarray (Cy3/Cy5 ratio), KIAA0310",[2]; GenBank AB002308,1.94
same,"cDNA microarray (Cy3/Cy5 ratio), ATP10B",[2]; GenBank AB018258,3.11
same,"cDNA microarray (Cy3/Cy5 ratio), TTF2",[2]; GenBank AB209845,1.58
same,"cDNA microarray (Cy3/Cy5 ratio), TncRNA",[2]; GenBank AF001893,1.5
same,"cDNA microarray (Cy3/Cy5 ratio), C4orf19",[2]; GenBank AK001879,1.51
same,"cDNA microarray (Cy3/Cy5 ratio), CYP19A1",[2]; GenBank AK023571,2.03
same,"cDNA microarray (Cy3/Cy5 ratio), SLC40A1",[2]; GenBank AK023574,1.5
same,"cDNA microarray (Cy3/Cy5 ratio), ABTB2",[2]; GenBank AK095632,1.78
same,"cDNA microarray (Cy3/Cy5 ratio), TUBB3",[2]; GenBank AK122757,2.03
same,"cDNA microarray (Cy3/Cy5 ratio), MGC27016",[2]; GenBank AK125877,1.51
same,"cDNA microarray (Cy3/Cy5 ratio), GLCCI1",[2]; GenBank AK126731,1.56
same,"cDNA microarray (Cy3/Cy5 ratio), TFCP2L4",[2]; GenBank BC036890,1.61
same,"cDNA microarray (Cy3/Cy5 ratio), RGS2",[2]; GenBank BC042755,1.78
same,"cDNA microarray (Cy3/Cy5 ratio), SIAT7A",[2]; GenBank BC063830,2.54
same,"cDNA microarray (Cy3/Cy5 ratio), B7-H4",[2]; GenBank BX648021,0.52
same,"cDNA microarray (Cy3/Cy5 ratio), COBLL1",[2]; GenBank BX649112,1.85
same,"cDNA microarray (Cy3/Cy5 ratio), CGA",[2]; GenBank NM_000735,3.04
same,"cDNA microarray (Cy3/Cy5 ratio), PARP1",[2]; GenBank NM_001618,0.66
same,"cDNA microarray (Cy3/Cy5 ratio), SERPINB9",[2]; GenBank NM_004155,1.73
same,"cDNA microarray (Cy3/Cy5 ratio), ST8SIA4",[2]; GenBank NM_005668,1.69
same,"cDNA microarray (Cy5 treated / Cy3 control ratio), ABL1",[2]; GenBank NM_007313,0.65
same,"cDNA microarray (Cy3/Cy5 ratio), GRLF1",[2]; GenBank NM_024342,0.55
same,"cDNA microarray (Cy3/Cy5 ratio), LGP1",[2]; GenBank NM_032484,0.58
same,"cDNA microarray (Cy3/Cy5 ratio), NCOA3",[2]; GenBank NM_181659,1.64
same,"cDNA microarray (Cy3/Cy5 ratio), SR140",[2]; GenBank XM_031553,0.5
same,"cDNA microarray (Cy3/Cy5 ratio), SLC7A8",[2]; GenBank Y18483,1.71
same,"Ratio of intermediate value, IGF2","[2]; Genbank AK074614, drug at IC30",0.64
same,"Ratio of intermediate value, GRLF1","[2]; Genbank BI494022, NM_024342, drug at IC30",0.55
same,"Ratio of intermediate value, B7-H4","[2]; Genbank BX648021, drug at IC30",0.52
same,"Ratio of intermediate value, PARP1","[2]; Genbank NM_001618, drug at IC30",0.66
same,"Ratio of intermediate value, NRP1","[2]; Genbank NM_003873, drug at IC30",0.62
same,"Ratio of intermediate value, HAND1","[2]; Genbank NM_004821, drug at IC30",0.61
same,"Ratio of intermediate value, ABL1","[2]; Genbank NM_007313, drug at IC30",0.65
same,"Ratio of intermediate value, LGP1","[2]; Genbank NM_032484, drug at IC30",0.58
same,"Ratio of intermediate value, SR140","[2]; Genbank XM_031553, drug at IC30",0.50
same,genes down-regulated (ratio of intermediate value less than 0.666),"[2]; JEG-3, drug at IC30, 48 hours",0.34%
same,genes up-regulated (ratio of intermediate value more than 1.5),"[2]; JEG-3, drug at IC30, 48 hours",0.95%
same,number of genes down-regulated,[2]; [3],74
same,number of genes up-regulated,[2]; [3],208
same,"Ratio of intermediate value, gene ATP10B (AB018258, ATPase, Class V, type 10B)",[2]; [4],3.11
same,"Ratio of intermediate value, gene BQ186674 (cDNA clone UI-E-EJ1-ajr-f-10-0-UI, Hypothetical gene supported by AF086204)",[2]; [4],1.60
same,"Ratio of intermediate value, gene BX111592 (Transcribed locus, moderately similar to XP_066443.6 PREDICTED: similar to paraneoplastic antigen like 6A)",[2]; [4],2.17
same,"Ratio of intermediate value, gene CGA (NM_000735, Glycoprotein hormones, alpha polypeptide)",[2]; [4],3.04
same,"Ratio of intermediate value, gene COBLL1 (BX649112, COBL-like 1)",[2]; [4],1.85
same,"Ratio of intermediate value, gene CYP19A1 (AK023571, Cytochrome P450, family 19, subfamily A, polypeptide 1)",[2]; [4],2.03
same,"Ratio of intermediate value, gene FLJ11017 (AK001879, Hypothetical protein FLJ11017)",[2]; [4],1.51
same,"Ratio of intermediate value, gene GLCCI1 (AK126731, Glucocorticoid induced transcript 1)",[2]; [4],1.56
same,"Ratio of intermediate value, gene KIAA0310 (AB002308, KIAA0310)",[2]; [4],1.94
same,"Ratio of intermediate value, gene MGC27016 (AK125877, Hypothetical protein MGC27016)",[2]; [4],1.51
same,"Ratio of intermediate value, gene NCOA3 (NM_181659, Nuclear receptor coactivator 3)",[2]; [4],1.64
same,"Ratio of intermediate value, gene RGS2 (BC042755, Regulator of G-protein signalling 2, 24 kDa)",[2]; [4],1.78
same,"Ratio of intermediate value, gene SIAT7A (BC063830, ST6 (alpha-N-acetyl-neuraminyl-2,3-beta-galactosyl-1,3)-N-acetylgalactosaminide alpha-2,6-sialyltransferase 1)",[2]; [4],2.54
same,"Ratio of intermediate value, gene SIAT8D (NM_005668, ST8 alpha-N-acetyl-neuraminide alpha-2,8-sialyltransferase 4)",[2]; [4],1.69
same,"Ratio of intermediate value, gene SLC7A8 (Y18483, Solute carrier family 7 (cationic amino acid transporter, y+ system), member 8)",[2]; [4],1.71
same,"Ratio of intermediate value, gene SLC40A1 (AK023574, Solute carrier family 40 (iron-regulated transporter), member 1)",[2]; [4],1.50
same,"Ratio of intermediate value, gene TFCP2L4 (BC036890, Grainyhead-like 3 (Drosophila))",[2]; [4],1.61
same,"Ratio of intermediate value, gene TTF2 (AB209845, Transcription termination factor, RNA polymerase II)",[2]; [4],1.58
same,"Ratio of intermediate value, gene TUBB3 (AK122757, Tubulin, beta 3)",[2]; [4],2.03
same,"Ratio of intermediate value, gene TncRNA (AF001893, Trophoblast-derived noncoding RNA)",[2]; [4],1.50
